Measured values from publication PMC406516 (BMC Clinical Pharmacology, 2004).

Experiments:
[1] = system: albumin; settings: cited from earlier work
[2] = biological target: defatted human serum albumin (Sigma albumin) (Homo sapiens, UniProt P02768); assay: Drug binding by ultrafiltration in Sigma albumin solution; settings: isolated protein, pH 7.4
[3] = biological target: Sigma albumin and native human serum (Homo sapiens, UniProt P02768); settings: relative to K1 of naproxen; summary of Table 2
Chain of Sigma albumin and native human serum (P02768 25-609): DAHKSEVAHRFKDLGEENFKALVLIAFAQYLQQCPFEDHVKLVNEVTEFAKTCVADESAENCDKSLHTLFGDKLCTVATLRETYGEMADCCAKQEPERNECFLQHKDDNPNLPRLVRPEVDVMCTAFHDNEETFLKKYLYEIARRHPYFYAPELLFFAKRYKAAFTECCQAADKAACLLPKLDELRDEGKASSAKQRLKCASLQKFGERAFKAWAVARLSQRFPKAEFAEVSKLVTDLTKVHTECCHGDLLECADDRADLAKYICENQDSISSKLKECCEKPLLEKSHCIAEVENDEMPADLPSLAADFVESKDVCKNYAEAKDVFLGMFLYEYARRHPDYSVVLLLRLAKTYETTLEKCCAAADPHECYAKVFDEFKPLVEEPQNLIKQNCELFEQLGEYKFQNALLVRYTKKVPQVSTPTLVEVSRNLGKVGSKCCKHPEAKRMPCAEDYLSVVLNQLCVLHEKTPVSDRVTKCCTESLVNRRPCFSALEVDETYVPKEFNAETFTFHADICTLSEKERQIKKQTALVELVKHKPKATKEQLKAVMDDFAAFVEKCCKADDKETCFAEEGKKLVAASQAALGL

[4] = biological target: Pharmaceutical-grade albumin Octapharma (Homo sapiens, UniProt P02768); assay: Drug binding by ultrafiltration in pharmaceutical-grade albumin from Octapharma; settings: for n1 (specific binding sites): Final product
Chain of Pharmaceutical-grade albumin Octapharma (P02768 25-609): as above

[5] = biological target: Pharmaceutical-grade albumin Baxter/Immuno (Homo sapiens, UniProt P02768)
Chain of Pharmaceutical-grade albumin Baxter/Immuno (P02768 25-609): as above

[6] = biological target: Human serum (Homo sapiens, UniProt P02768); assay: Drug binding by ultrafiltration in native human serum
Chain of Human serum (P02768 25-609): as above

[7] = biological target: in-process albumin (Octapharma, before addition of stabilisers and final heating) (Homo sapiens, UniProt P02768); assay: Drug binding by ultrafiltration in in-process albumin from Octapharma; settings: mean (SD), 5 experiments
Chain of in-process albumin (Octapharma, before addition of stabilisers and final heating) (P02768 25-609): as above

[8] = biological target: Pharmaceutical-grade albumin Pharmacia & Upjohn (Homo sapiens, UniProt P02768)
Chain of Pharmaceutical-grade albumin Pharmacia & Upjohn (P02768 25-609): as above

[9] = biological target: albumin solutions from Baxter/Immuno, Octapharma, and Pharmacia & Upjohn (Homo sapiens, UniProt P02768)
Chain of albumin solutions from Baxter/Immuno, Octapharma, and Pharmacia & Upjohn (P02768 25-609): as above

[10] = charcoal treated, mean (SD), 5 experiments
[11] = Octapharma albumin 0.615 mmol/L, Scatchard, mean (SD), 5 experiments
[12] = human, isolated protein, pH 7.4
[13] = Baxter/Immuno albumin 0.615 mmol/L, Scatchard, mean (SD), 5 experiments
[14] = human serum, Scatchard, mean (SD), 5 experiments
[15] = Pharmacia & Upjohn albumin 0.615 mmol/L, Scatchard, mean (SD), 5 experiments

Chain of defatted human serum albumin (Sigma albumin) (P02768 25-609): as above

## C[C@H]1O[C@@H](O[C@H]2[C@@H](O)C[C@H](O[C@H]3[C@@H](O)C[C@H](O[C@H]4CC[C@@]5(C)[C@H](CC[C@@H]6[C@@H]5CC[C@]5(C)[C@@H](C7=CC(=O)OC7)CC[C@]65O)C4)O[C@@H]3C)O[C@@H]2C)C[C@H](O)[C@@H]1O [Digitoxin, digitoxin]
[1]
  albumin-bound: more than 95%
[2]
  fraction unbound at 30 min: 0.051
[3]
  K1 higher than that of naproxen: ~100 times
[4]; [10]
  n1 (specific binding sites): 1.3 (0.2)
[4]; not charcoal treated, mean (SD), 5 experiments
  n1 (specific binding sites): 1.1 (0.1)
[4]; [11]
  Specific binding n1 (number of binding sites): 0.9 (0.03)
[4]; [12]
  fraction unbound at 30 min: 0.1
[5]; [13]
  Specific binding n1 (number of binding sites): 1.1 (0.1)
[5]; [12]
  fraction unbound at 30 min: 0.111
[6]; [14]
  Specific binding n1 (number of binding sites): 1.8 (0.5)
[6]; human, serum, pH 7.4
  fraction unbound at 30 min: 0.049
[7]; charcoal treated
  n1 (specific binding sites): 0.8 (0.03)
[7]; not charcoal treated
  n1 (specific binding sites): 0.8 (0.03)
[8]; [15]
  Specific binding n1 (number of binding sites): 1.4 (0.3)
[8]; [12]
  fraction unbound at 30 min: 0.115
[9]; pharmaceutical-grade albumins versus native human serum and Sigma albumin
  free fraction higher than in native human serum and Sigma albumin: ~2 times

## COc1ccc2cc([C@H](C)C(=O)O)ccc2c1 [Naproxen, naproxen]
[4]; [10]
  n1 (specific binding sites): 1.1 (0.1)
[4]; charcoal treated, mean (SD), 5 experiments, listed as naproxen
  n1 (specific binding sites): 1.1 ± 0.1
[4]; [11]
  Non Specific binding n2 (number of binding sites): 4.0 (0.3)
[5]; [13]
  Non Specific binding n2 (number of binding sites): 3.8 (0.2)
[6]; [14]
  Non Specific binding n2 (number of binding sites): 3.9 (0.2)
  Specific binding n1 (number of binding sites): 1.0 (0.1)
[8]; [15]
  Non Specific binding n2 (number of binding sites): 3.8 (0.3)
[9]; albumin solutions from Baxter/Immuno, Octapharma, and Pharmacia & Upjohn
  specific binding: abolished
